# Measured values published in patent US20210070748A1, “INHIBITORS OF BRUTONS TYROSINE KINASE” (Pharmacyclics LLC, priority 2015, published 2021).
# How the values were obtained:
# Format in all cases: biochemical
# JAK3 = target: T1, JAK3 (Homo sapiens, UniProt P52333); test: Inhibition of a panel of kinases, in vitro HotSpot kinase assay: JAK3; conditions: D-compounds panel data; 1 μM ATP; read-out: IC50 JAK3
# T1 sequence (P52333 1-1124): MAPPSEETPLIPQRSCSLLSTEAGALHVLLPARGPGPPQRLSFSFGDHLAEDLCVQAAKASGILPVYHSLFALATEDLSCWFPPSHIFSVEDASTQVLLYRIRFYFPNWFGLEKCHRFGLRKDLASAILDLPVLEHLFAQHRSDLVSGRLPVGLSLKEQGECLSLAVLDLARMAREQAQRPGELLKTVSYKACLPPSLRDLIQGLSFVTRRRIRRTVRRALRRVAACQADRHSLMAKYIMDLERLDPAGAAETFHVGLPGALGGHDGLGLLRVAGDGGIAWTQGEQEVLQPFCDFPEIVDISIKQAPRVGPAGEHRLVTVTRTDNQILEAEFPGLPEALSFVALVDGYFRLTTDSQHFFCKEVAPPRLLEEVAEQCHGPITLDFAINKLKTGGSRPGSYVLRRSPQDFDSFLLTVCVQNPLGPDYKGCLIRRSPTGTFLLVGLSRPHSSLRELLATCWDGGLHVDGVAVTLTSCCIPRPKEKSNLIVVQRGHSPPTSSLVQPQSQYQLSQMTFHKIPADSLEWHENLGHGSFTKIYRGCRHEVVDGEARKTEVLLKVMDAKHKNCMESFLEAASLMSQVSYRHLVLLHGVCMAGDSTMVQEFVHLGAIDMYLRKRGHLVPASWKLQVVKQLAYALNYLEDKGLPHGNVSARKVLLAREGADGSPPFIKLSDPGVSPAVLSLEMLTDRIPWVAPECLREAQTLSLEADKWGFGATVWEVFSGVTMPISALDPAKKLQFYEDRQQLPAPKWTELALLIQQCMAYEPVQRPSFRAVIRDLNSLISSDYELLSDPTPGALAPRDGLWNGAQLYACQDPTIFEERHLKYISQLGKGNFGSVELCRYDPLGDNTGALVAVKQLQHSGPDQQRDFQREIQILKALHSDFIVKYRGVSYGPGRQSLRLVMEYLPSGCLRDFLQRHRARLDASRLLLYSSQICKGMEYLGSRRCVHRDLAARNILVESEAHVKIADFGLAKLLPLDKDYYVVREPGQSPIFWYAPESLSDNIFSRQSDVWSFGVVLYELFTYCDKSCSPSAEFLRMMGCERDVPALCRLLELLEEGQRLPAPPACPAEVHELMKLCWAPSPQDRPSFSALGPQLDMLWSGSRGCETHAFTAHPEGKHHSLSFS
# LCK = LCK (Homo sapiens, UniProt P06239); test: Inhibition of a panel of kinases, in vitro HotSpot kinase assay: LCK; conditions: D-compounds panel data; 1 μM ATP; read-out: IC50 LCK
# ITK = target: T2, ITK (Homo sapiens, UniProt Q08881); test: Inhibition of a panel of kinases, in vitro HotSpot kinase assay: ITK; conditions: D-compounds panel data; 1 μM ATP
# T2 sequence (Q08881 1-620): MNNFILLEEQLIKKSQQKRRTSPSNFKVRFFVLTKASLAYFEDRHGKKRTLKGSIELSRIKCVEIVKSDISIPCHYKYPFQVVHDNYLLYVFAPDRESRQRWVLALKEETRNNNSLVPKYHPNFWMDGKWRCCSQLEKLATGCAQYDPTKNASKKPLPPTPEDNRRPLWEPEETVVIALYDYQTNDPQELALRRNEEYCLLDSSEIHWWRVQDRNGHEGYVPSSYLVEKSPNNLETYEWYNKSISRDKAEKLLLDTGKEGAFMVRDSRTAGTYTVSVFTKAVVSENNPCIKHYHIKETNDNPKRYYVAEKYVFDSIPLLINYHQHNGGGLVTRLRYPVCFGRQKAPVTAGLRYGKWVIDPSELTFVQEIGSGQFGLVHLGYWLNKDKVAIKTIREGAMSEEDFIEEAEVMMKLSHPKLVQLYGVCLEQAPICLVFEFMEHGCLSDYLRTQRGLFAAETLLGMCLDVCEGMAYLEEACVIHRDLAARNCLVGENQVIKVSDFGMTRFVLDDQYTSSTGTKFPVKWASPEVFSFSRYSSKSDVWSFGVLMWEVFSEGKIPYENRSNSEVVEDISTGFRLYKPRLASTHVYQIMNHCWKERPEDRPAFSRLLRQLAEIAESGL
# Procedure: (§1) The degree of inhibition of a panel of kinases is determined using the in vitro HotSpot kinase assay (purified enzymes, ^33P-ATP, an appropriate substrate and 1 μM ATP).
# EGFR = EGFR (Homo sapiens, UniProt P00533); test: Inhibition of a panel of kinases, in vitro HotSpot kinase assay: EGFR; conditions: D-compounds panel data; 1 μM ATP
# Procedure: as §1
# SRC = SRC (Homo sapiens, UniProt P12931); test: Inhibition of a panel of kinases, in vitro HotSpot kinase assay: SRC; conditions: D-compounds panel data; 1 μM ATP
# Procedure: as §1
# TEC = target: T3, TEC (Homo sapiens, UniProt P42680); test: Inhibition of a panel of kinases, in vitro HotSpot kinase assay: TEC; conditions: D-compounds panel data; 1 μM ATP
# T3 sequence (P42680 1-631): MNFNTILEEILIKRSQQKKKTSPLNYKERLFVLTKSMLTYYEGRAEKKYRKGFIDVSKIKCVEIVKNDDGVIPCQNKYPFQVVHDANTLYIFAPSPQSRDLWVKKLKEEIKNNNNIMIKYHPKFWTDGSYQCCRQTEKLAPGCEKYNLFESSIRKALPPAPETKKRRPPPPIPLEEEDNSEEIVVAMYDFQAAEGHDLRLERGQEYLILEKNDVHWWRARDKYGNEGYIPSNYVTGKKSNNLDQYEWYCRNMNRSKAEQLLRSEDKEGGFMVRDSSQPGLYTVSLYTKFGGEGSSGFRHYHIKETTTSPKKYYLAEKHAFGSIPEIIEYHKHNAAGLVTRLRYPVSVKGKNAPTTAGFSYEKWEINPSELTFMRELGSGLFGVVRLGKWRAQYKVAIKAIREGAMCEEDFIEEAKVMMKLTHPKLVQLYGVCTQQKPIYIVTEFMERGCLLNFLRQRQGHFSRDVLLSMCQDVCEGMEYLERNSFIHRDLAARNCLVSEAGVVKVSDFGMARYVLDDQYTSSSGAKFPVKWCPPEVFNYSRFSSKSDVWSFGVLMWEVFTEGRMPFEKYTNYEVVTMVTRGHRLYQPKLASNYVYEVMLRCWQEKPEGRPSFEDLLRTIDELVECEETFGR
# Procedure: as §1
# SRC, sequence (P12931 whole entry): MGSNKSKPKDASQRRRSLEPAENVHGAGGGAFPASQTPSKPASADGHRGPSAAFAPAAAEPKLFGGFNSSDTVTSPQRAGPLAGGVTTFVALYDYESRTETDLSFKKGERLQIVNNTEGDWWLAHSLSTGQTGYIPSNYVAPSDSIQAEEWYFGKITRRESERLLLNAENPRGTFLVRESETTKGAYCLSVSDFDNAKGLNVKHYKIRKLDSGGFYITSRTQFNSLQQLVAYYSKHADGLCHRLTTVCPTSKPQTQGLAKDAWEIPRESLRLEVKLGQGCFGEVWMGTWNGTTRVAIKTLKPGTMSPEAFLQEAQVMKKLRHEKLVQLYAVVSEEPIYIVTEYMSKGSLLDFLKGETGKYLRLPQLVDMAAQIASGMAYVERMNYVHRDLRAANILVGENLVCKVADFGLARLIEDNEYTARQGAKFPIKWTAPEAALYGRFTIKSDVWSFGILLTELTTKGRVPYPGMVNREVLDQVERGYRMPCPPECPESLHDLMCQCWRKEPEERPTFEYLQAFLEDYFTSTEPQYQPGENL
# LCK, sequence (P06239 whole entry): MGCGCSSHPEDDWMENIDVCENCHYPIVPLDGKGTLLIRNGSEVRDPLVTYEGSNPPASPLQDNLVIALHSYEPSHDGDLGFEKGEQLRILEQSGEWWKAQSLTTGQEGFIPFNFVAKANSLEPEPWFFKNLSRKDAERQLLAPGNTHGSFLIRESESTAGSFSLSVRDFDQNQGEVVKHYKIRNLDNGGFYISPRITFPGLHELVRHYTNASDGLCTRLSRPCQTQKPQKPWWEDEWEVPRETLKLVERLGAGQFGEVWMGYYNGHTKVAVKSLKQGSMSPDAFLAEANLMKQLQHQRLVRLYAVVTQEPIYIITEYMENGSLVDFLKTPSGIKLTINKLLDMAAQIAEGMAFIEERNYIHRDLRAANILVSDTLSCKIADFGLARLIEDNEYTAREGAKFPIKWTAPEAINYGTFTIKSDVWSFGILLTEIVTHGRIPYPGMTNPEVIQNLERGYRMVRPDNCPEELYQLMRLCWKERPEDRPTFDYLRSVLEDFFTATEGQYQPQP
# EGFR, sequence (P00533 25-1210): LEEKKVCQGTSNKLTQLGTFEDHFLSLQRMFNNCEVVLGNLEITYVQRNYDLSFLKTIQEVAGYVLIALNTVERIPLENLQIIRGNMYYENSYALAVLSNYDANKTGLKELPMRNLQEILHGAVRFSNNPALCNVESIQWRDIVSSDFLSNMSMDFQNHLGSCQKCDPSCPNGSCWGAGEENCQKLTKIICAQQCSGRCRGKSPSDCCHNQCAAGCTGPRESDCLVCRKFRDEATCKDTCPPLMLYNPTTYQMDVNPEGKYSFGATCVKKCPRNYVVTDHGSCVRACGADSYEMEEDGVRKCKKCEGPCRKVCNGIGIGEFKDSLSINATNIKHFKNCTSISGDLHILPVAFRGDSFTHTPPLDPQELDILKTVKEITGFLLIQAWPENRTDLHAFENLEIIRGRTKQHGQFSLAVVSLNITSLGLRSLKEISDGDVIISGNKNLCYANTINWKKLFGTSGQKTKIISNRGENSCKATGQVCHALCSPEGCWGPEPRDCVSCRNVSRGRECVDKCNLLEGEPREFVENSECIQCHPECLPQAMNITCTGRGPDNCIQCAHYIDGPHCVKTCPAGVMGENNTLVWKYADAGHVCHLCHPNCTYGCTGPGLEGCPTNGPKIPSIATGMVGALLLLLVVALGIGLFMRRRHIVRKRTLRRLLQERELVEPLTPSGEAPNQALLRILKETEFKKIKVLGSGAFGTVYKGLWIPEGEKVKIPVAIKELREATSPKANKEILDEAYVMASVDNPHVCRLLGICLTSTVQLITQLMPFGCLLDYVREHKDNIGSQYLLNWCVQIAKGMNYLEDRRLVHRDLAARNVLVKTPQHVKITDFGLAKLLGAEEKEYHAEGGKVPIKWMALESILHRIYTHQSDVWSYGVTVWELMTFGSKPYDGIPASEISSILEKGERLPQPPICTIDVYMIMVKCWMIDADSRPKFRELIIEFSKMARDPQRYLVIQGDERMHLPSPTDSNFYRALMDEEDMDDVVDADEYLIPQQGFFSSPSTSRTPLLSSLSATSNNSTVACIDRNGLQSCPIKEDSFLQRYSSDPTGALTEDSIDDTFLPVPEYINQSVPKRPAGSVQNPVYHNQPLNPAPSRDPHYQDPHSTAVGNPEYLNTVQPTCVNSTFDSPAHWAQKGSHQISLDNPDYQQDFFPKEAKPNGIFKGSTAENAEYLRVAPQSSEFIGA
Compound,IC50 (JAK3),IC50 (LCK),IC50 (ITK),IC50 (EGFR),IC50 (SRC),IC50 (TEC)
"CN1CCN(c2ccc(Nc3nc(N4CCC[C@@H](n5ccc6cc(C7CC7)ccc6c5=O)C4)cnc3C(N)=O)nc2)CC1 [Example D-179, 5-[(3R)-3-(6-cyclopropyl-1-oxo-1,2-dihydroisoquinolin-2-yl)piperidin-1-yl]-3-{[5-(4-methylpiperazin-1-yl)pyridin-2-yl]amino}pyrazine-2-carboxamide]",> 10000 nM,> 10000 nM,1000 to 10000 nM,> 10000 nM,> 10000 nM,1000 to 10000 nM
"C[C@@H]1[C@H](NC(=O)N(C)C)CCCN1c1cnc(C(N)=O)c(Nc2ccc(N3CCN(C)CC3)cn2)n1 [Example D-180, 5-[(2R,3R)-3-[(dimethylcarbamoyl)amino]-2-methylpiperidin-1-yl]-3-{[5-(4-methylpiperazin-1-yl)pyridin-2-yl]amino}pyrazine-2-carboxamide]",> 10000 nM,> 10000 nM,> 10000 nM,1000 to 10000 nM,> 10000 nM,> 10000 nM
"Cc1cc(Nc2nc(N3C[C@H](NC(=O)c4ccc(C5CC5)cc4F)CC[C@@H]3C)cnc2C(N)=O)sn1 [Example D-181, 5-[(2S,5R)-5-(4-cyclopropyl-2-fluorobenzamido)-2-methylpiperidin-1-yl]-3-[(3-methyl-1,2-thiazol-5-yl)amino]pyrazine-2-carboxamide]",100 to 1000 nM,100 to 1000 nM,1000 to 10000 nM,100 to 1000 nM,10 to 100 nM,10 to 100 nM
"C[C@@H]1[C@H](NC(=O)N(C)C)CCCN1c1cnc(C(N)=O)c(Nc2ccc(N3CCN(C4CCCC4)CC3)cc2)n1 [Example D-182, 3-{[4-(4-cyclopentylpiperazin-1-yl)phenyl]amino}-5-[(2R,3R)-3-[(dimethylcarbamoyl)amino]-2-methylpiperidin-1-yl]pyrazine-2-carboxamide]",100 to 1000 nM,10 to 100 nM,100 to 1000 nM,100 to 1000 nM,10 to 100 nM,100 to 1000 nM
"C[C@@H]1[C@H](NC(=O)c2ccc(N(C)C)cc2)CCCN1c1cnc(C(N)=O)c(Nc2ccc(C3(C)CCN(C4CCCC4)CC3)cc2)n1 [Example D-183, 3-{[4-(1-cyclopentyl-4-methylpiperidin-4-yl)phenyl]amino}-5-[(2R,3R)-3-[4-(dimethylamino)benzamido]-2-methylpiperidin-1-yl]pyrazine-2-carboxamide]",100 to 1000 nM,10 to 100 nM,10 to 100 nM,100 to 1000 nM,≤ 10 nM,10 to 100 nM
"Cn1cc(Nc2nc(N3CCC[C@@H](n4ccc5cc(C6CC6)ccc5c4=O)C3)cnc2C(N)=O)cn1 [Example D-184, 5-[(3R)-3-(6-cyclopropyl-1-oxo-1,2-dihydroisoquinolin-2-yl)piperidin-1-yl]-3-[(1-methyl-1H-pyrazol-4-yl)amino]pyrazine-2-carboxamide]",> 10000 nM,1000 to 10000 nM,> 10000 nM,> 10000 nM,1000 to 10000 nM,10 to 100 nM
"C[C@@H]1[C@H](NC(=O)c2ccc(C3CC3)cc2)CCCN1c1cnc(C(N)=O)c(Nc2cnn(C3CCN(C)CC3)c2)n1 [Example D-185, 5-[(2R,3R)-3-(4-cyclopropylbenzamido)-2-methylpiperidin-1-yl]-3-{[1-(1-methylpiperidin-4-yl)-1H-pyrazol-4-yl]amino}pyrazine-2-carboxamide]",1000 to 10000 nM,10 to 100 nM,100 to 1000 nM,100 to 1000 nM,10 to 100 nM,10 to 100 nM
"Cc1cc(Nc2nc(N3CCC[C@@H](c4ncc(-c5ccc(C6CC6)cc5)[nH]4)[C@H]3C)cnc2C(N)=O)sn1 [Example D-186, 5-[(2R,3R)-3-[5-(4-cyclopropylphenyl)-1H-imidazol-2-yl]-2-methylpiperidin-1-yl]-3-[(3-methyl-1,2-thiazol-5-yl)amino]pyrazine-2-carboxamide]",1000 to 10000 nM,1000 to 10000 nM,> 10000 nM,1000 to 10000 nM,100 to 1000 nM,100 to 1000 nM
"C[C@@H]1[C@H](NC(=O)c2ccc(C3CC3)cc2)CCCN1c1cnc(C(N)=O)c(Nc2cnn(CCN(C)C)c2)n1 [Example D-187, 5-[(2R,3R)-3-(4-cyclopropylbenzamido)-2-methylpiperidin-1-yl]-3-({1-[2-(dimethylamino)ethyl]-1H-pyrazol-4-yl}amino)pyrazine-2-carboxamide]",1000 to 10000 nM,100 to 1000 nM,1000 to 10000 nM,1000 to 10000 nM,100 to 1000 nM,100 to 1000 nM
"C[C@@H]1[C@H](NC(=O)c2ccc(C3CC3)cn2)CCCN1c1cnc(C(N)=O)c(Nc2ccc(N3CCN(C)CC3)cc2)n1 [Example D-188, 5-[(2R,3R)-3-(5-cyclopropylpyridine-2-amido)-2-methylpiperidin-1-yl]-3-{[4-(4-methylpiperazin-1-yl)phenyl]amino}pyrazine-2-carboxamide]",1000 to 10000 nM,100 to 1000 nM,100 to 1000 nM,100 to 1000 nM,10 to 100 nM,10 to 100 nM
"Cn1cc(Nc2nc(N3C[C@@H](NC(=O)c4ccc(C5CC5)cc4)CC(F)(F)C3)cnc2C(N)=O)cn1 [Example D-189, 5-[(5S)-5-(4-cyclopropylbenzamido)-3,3-difluoropiperidin-1-yl]-3-[(1-methyl-1H-pyrazol-4-yl)amino]pyrazine-2-carboxamide]",1000 to 10000 nM,> 10000 nM,> 10000 nM,1000 to 10000 nM,> 10000 nM,1000 to 10000 nM
"Cn1cc(Nc2nc(N3CCC[C@@H](NC(=O)c4ccc(C5CC5)cc4)C3)cnc2C(N)=O)cn1 [Example D-191, 5-[(3R)-3-(4-cyclopropylbenzamido)piperidin-1-yl]-3-[(1-methyl-1H-pyrazol-4-yl)amino]pyrazine-2-carboxamide]",1000 to 10000 nM,100 to 1000 nM,1000 to 10000 nM,> 10000 nM,100 to 1000 nM,100 to 1000 nM
